From the supplement of paper PMC10307832

How the values were obtained:
Experiment in all cases: relative viability (nuclei count vs DMSO), 5 days (fraction); higher = more cells survive
CUDC-101 + Crizotinib = compound: C#Cc1cccc(Nc2ncnc3cc(OC)c(OCCCCCCC(=O)NO)cc23)c1 [CUDC-101] + C[C@@H](Oc1cc(-c2cnn(C3CCNCC3)c2)cnc1N)c1c(Cl)ccc(F)c1Cl [Crizotinib] (partner 1 µM)
Outline: (§1)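 Dosing by pin tool came one day after lung cancer cell lines were seeded in 1536-well plates, using either one drug or a fixed anchor-drug dose plus five library-drug doses (not always all listed) in √10 steps. After 5 days, nuclei were counted on 4× images. Relative viability is treated-well nuclei count divided by vehicle-well nuclei count, and values are medians of duplicate plates.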

CUDC-101 + Trametinib = compound: C#Cc1cccc(Nc2ncnc3cc(OC)c(OCCCCCCC(=O)NO)cc23)c1 [CUDC-101] + CC(=O)Nc1cccc(-n2c(=O)n(C3CC3)c(=O)c3c(Nc4ccc(I)cc4F)n(C)c(=O)c(C)c32)c1 [Trametinib] (partner 0.02 µM)
Outline: as §1

[1] = compound: C1=CC=C2C(=C1)N=C(S2)C(C#N)C3=NC(=NC=C3)NCCC4=CN=CC=C4 + CC(=O)c1c(C)c2cnc(Nc3ccc(N4CCNCC4)cn3)nc2n(C2CCCC2)c1=O [Palbociclib] (partner 0.5 µM)
Outline: as §1

[2] = compound: C1=CC=C2C(=C1)N=C(S2)C(C#N)C3=NC(=NC=C3)NCCC4=CN=CC=C4 + NC(=O)Nc1cc(-c2cccc(F)c2)sc1C(=O)N[C@H]1CCCNC1 [AZD7762] (partner 0.2 µM)
Outline: as §1

Row | Cell Line | relative viability (CUDC-101 + Crizotinib; first compound 0.01 µM) | relative viability (CUDC-101 + Crizotinib; first compound 0.03162 µM) | relative viability (CUDC-101 + Crizotinib; first compound 0.1 µM) | relative viability (CUDC-101 + Crizotinib; first compound 0.3162 µM) | relative viability (CUDC-101 + Crizotinib; first compound 1 µM) | relative viability (CUDC-101 + Trametinib; first compound 0.01 µM) | relative viability (CUDC-101 + Trametinib; first compound 0.03162 µM) | relative viability (CUDC-101 + Trametinib; first compound 0.1 µM) | relative viability (CUDC-101 + Trametinib; first compound 0.3162 µM) | relative viability (CUDC-101 + Trametinib; first compound 1 µM) | relative viability ([1]; first compound 0.005 µM) | relative viability ([1]; first compound 0.01581 µM) | relative viability ([1]; first compound 0.05 µM) | relative viability ([1]; first compound 0.1581 µM) | relative viability ([1]; first compound 0.5 µM) | relative viability ([2]; first compound 0.005 µM) | relative viability ([2]; first compound 0.01581 µM) | relative viability ([2]; first compound 0.05 µM) | relative viability ([2]; first compound 0.1581 µM) | relative viability ([2]; first compound 0.5 µM)
1 | HCC-366 | 0.531 | 0.535 | 0.557 | 0.5 | 0.372 | 0.391 | 0.378 | 0.312 | 0.366 | 0.209 | 0.302 | 0.44 | 0.364 | 0.375 | 0.282 | 0.199 | 0.254 | 0.288 | 0.279 | 0.129
2 | NCI-H1792 | 0.971 | 0.944 | 0.942 | 1.04 | 0.953 | 0.607 | 0.322 | 0.439 | 0.453 | 0.359 | 0.473 | 0.732 | 0.622 | 0.995 | 0.474 | – | 0.631 | 0.8 | 1.28 | 0.37
3 | LCLC-103H | 0.891 | 0.916 | 1.08 | 1.08 | 0.957 | 0.666 | 0.66 | 0.662 | 0.707 | 0.681 | 0.491 | 0.468 | 0.514 | 0.522 | 0.485 | 0.849 | 0.784 | 0.804 | 0.929 | 0.779
4 | NCI-H1666 | 0.91 | 0.969 | 1.15 | 1.09 | 0.791 | 0.842 | 0.931 | 0.818 | 0.911 | 0.831 | 0.64 | 0.654 | 0.632 | 0.631 | 0.657 | 0.956 | 0.764 | 0.817 | 0.805 | 0.803
5 | NCI-H460 | 1.04 | 0.982 | 0.719 | 1.06 | 0.787 | 0.108 | 0.224 | 0.227 | 0.182 | 0.0486 | – | 0.146 | 0.118 | 0.147 | 0.143 | 0.508 | 0.641 | 0.672 | 0.69 | 0.43
